This is an account of results in patent US10336734B2, “Inhibitors of ACK1/TNK2 tyrosine kinase” (H. LEE MOFFITT CANCER CENTER AND RESEARCH INSTITUTE, INC., priority 2015, dated 2019).

Assay [1] has as its system histone H4 Y88-phosphorylation. Put plainly: Immunoblot of H4 Y88-phosphorylation in ligand-treated PC cells. Conditions: serum and androgen starved PC cells, ligand activated; 5 μM (DHT 10 nM). Type of assay: cell-based. As to the method: FIG. 2A through 2C. ACK1 inhibitor (R)-9bMS suppresses epigenetic modification of histone H4 at tyrosine 88.
To assess endogenous H4-phosphorylation, serum and androgen starved PC cells were treated with ligands to activate ACK1. It led to robust H4 Y88-phosphorylation, suppressed upon (R)-9bMS treatment (FIG. 2A). […] Moreover, H4 Y88-phosphorylation was also detected in human CRPCs using mass spectrometry, which was validated by immunoblotting (FIG. 3A-3C).

Assay [2] deals with LNCaP cells expressing constitutively activated ACK1. As to conditions: mouse xenograft model; cited from earlier work.
The target in assay [3] is T1, ACK1 (Homo sapiens (Human), UniProt Q07912). Put plainly: ACK1 ELISA. Type of assay: biochemical. As to conditions: read-out: ACK1 ELISA % inhibition at 10 μM.
T1 sequence (Q07912 whole entry): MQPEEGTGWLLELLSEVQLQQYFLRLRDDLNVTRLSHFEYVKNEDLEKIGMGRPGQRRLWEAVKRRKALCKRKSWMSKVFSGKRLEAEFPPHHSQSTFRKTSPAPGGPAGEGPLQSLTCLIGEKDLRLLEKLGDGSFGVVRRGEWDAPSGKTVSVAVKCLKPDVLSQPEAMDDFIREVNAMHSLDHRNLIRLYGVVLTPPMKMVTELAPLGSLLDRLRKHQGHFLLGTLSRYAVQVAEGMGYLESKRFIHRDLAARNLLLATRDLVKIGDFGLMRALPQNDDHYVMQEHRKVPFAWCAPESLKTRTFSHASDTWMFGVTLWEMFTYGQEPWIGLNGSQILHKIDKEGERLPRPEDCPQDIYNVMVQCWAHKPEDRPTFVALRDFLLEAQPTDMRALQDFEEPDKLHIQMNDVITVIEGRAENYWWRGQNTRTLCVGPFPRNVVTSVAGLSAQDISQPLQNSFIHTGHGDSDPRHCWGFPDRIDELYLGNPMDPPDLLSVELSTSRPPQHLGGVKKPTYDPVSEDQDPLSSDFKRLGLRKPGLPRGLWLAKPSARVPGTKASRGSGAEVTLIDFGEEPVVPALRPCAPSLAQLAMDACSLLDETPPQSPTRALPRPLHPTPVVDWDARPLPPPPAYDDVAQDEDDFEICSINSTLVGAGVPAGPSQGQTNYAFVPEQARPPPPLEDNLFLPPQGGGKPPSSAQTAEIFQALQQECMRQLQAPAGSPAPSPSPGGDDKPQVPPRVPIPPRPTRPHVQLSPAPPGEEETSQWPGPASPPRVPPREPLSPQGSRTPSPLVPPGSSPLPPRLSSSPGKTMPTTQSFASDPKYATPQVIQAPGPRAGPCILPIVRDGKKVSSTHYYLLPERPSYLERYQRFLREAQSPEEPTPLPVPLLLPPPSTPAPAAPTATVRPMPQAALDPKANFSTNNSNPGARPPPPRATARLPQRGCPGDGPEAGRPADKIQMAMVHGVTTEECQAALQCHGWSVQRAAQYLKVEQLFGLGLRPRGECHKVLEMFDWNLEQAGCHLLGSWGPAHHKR
Assay [4] relates to castration and radioresistant prostate xenograft tumor. As to conditions: in vivo; cited from earlier work.
Assay [5] concerns the target T1, ACK1. Put plainly: ACK1 IC50 (RB). Type of assay: biochemical.
Another assay has as its target JAK2 (Homo sapiens (Human), UniProt O60674). The assay can be described thus: JAK2 IC50 (RB). Type of assay: biochemical.
The next assay deals with ALK (Homo sapiens (Human), UniProt Q9UM73). Put plainly: ALK IC50 (RB). It counts as biochemical.
Chain of ALK (Q9UM73 19-1620, species assumed): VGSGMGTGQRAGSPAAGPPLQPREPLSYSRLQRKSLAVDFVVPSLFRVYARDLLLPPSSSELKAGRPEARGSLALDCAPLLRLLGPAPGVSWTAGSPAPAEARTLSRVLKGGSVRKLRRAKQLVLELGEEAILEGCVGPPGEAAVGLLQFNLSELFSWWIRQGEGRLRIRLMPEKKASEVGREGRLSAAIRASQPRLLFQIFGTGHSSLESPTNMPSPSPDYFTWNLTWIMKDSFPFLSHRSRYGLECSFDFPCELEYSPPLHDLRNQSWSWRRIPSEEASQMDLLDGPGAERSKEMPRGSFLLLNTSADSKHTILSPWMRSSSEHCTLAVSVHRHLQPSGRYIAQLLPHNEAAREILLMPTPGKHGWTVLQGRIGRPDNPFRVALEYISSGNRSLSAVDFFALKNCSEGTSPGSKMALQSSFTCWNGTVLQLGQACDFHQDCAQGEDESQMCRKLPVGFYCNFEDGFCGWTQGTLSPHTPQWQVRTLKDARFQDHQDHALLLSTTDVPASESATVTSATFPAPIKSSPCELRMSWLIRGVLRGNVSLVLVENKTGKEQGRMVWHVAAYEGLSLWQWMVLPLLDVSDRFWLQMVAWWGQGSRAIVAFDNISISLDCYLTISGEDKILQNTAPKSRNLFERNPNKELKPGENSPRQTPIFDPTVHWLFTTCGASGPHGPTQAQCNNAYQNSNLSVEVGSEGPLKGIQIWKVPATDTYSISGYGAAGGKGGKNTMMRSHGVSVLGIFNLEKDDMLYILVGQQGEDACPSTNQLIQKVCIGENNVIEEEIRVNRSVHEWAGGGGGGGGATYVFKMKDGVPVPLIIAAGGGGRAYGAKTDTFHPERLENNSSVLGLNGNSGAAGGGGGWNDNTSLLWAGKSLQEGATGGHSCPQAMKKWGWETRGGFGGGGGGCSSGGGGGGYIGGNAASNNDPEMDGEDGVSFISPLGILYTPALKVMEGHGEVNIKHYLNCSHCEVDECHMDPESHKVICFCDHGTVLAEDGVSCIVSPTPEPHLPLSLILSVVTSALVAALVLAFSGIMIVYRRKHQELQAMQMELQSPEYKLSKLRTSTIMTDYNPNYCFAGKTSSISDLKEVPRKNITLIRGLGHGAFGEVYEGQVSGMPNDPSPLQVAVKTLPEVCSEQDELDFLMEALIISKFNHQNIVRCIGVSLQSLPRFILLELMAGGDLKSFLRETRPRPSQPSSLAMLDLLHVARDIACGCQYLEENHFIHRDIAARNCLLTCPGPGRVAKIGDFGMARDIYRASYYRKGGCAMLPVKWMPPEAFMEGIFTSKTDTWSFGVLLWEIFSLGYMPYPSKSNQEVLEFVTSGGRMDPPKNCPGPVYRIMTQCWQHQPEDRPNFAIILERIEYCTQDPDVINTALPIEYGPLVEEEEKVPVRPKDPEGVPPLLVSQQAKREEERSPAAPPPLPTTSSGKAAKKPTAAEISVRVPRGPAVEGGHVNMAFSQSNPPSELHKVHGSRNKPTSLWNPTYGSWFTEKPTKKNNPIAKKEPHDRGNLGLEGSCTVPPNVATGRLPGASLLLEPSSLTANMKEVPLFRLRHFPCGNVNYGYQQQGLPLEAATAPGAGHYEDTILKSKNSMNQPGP
A further assay addresses c-Src (Homo sapiens (Human), UniProt P12931). The assay can be described thus: c-Src IC50 (RB). It counts as biochemical.
Assay [6] relates to non-small cell lung cancer (NSCLC) cell lines. As to conditions: panel of NSCLC cell lines; cited from earlier work.

Each structure is given as a SMILES string. pIC50: −log10 of the molar value. Where a name gives a salt, the structure may show the parent alone.

Chain of c-Src (P12931 whole entry, looked up, species assumed): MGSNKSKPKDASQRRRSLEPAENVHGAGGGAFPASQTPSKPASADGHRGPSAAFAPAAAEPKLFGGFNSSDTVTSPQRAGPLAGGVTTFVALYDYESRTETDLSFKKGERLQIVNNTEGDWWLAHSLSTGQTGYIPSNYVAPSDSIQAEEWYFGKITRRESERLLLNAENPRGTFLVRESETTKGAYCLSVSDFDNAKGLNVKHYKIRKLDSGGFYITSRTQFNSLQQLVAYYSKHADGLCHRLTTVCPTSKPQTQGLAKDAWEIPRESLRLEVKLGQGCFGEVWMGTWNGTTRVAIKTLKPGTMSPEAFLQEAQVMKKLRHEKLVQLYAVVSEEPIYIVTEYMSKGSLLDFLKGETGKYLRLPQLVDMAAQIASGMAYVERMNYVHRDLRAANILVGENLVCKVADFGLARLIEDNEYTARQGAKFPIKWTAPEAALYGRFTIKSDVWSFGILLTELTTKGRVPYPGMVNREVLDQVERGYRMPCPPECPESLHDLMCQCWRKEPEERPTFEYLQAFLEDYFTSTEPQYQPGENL
Chain of JAK2 (O60674 whole entry, species assumed): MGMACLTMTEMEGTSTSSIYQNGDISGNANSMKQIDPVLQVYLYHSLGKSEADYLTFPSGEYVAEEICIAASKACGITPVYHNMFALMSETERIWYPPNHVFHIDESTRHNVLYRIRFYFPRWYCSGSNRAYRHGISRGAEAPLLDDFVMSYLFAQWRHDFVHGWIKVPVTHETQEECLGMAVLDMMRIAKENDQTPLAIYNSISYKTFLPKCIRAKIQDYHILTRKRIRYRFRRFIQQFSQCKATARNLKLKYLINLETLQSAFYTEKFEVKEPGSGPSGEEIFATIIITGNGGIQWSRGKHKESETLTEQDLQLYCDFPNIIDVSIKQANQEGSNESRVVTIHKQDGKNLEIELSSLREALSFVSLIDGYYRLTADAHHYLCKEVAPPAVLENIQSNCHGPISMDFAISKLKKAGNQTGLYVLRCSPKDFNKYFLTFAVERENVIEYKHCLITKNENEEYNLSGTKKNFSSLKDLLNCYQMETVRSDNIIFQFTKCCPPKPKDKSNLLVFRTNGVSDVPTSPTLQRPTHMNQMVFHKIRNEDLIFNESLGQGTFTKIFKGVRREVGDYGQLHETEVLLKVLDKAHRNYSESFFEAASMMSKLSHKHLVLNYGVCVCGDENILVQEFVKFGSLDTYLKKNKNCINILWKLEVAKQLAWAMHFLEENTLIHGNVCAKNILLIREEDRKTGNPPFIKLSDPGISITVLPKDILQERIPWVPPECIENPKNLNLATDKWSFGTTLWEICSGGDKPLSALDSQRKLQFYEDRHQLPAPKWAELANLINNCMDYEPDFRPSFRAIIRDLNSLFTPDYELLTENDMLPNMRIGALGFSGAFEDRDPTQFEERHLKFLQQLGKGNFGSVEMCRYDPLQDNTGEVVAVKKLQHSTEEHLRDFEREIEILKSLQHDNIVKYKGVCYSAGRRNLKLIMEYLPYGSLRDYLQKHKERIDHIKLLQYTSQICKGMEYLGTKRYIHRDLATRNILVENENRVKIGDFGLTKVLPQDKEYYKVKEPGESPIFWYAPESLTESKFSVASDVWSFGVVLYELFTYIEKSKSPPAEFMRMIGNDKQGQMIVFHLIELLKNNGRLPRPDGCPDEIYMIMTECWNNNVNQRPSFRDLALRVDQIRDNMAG

For the compound `C[C@]12CCC(=O)C[C@@H]1CC[C@@H]1[C@@H]2CC[C@]2(C)[C@@H](O)CC[C@@H]12` [DHT], the “H4 Y88-phosphorylation” value in assay [1] was “remained unaffected”.

On to `Cc1nc(Nc2ncc(C(=O)Nc3c(C)cccc3Cl)s2)cc(N2CCN(CCO)CC2)n1` [Dasatinib], for which, in assay [2], the “Growth of LNCaP cells expressing constitutively activated ACK1, xenograft” value is recorded as “significantly reduced”.

As for `CN1CCN(c2ccc(Nc3ncc(Cl)c(NCc4ccco4)n3)cc2)CC1` [Example 1, 5-Chloro-N4-(furan-2-ylmethyl)-N2-(4-(4-methylpiperazin-1-yl)phenyl)pyrimidine-2,4-diamine], at ACK1 [3], the inhibition at 10 µM worked out at 96%.

For the compound `c1ccc(-c2oc3ncnc(NC[C@@H]4CCCO4)c3c2-c2ccccc2)cc1` [Example 1b], in assay [4], the “Castration and radioresistant prostate xenograft tumor growth” value was “inhibits”.

For the compound `CN1CCN(c2ccc(Nc3ncc(Cl)c(NCC4CCCN4)n3)cc2)CC1` (stereo not drawn) [Example 2, 5-Chloro-N2-(4-(4-methylpiperazin-1-yl)phenyl)-N4-(pyrrolidin-2-ylmethyl)pyrimidine-2,4-diamine tri-TFA salt], the inhibition at 10 µM on ACK1 [3] was found to be 18.3%.

With `Cc1ccc(CNc2nc(Nc3ccc(N4CCN(C)CC4)cc3)ncc2Cl)o1` [Example 3, 5-Chloro-N4-((5-methylfuran-2-yl)methyl)-N2-(4-(4-methylpiperazin-1-yl)phenyl)-pyrimidine-2,4-diamine], the inhibition at 10 µM on ACK1 [3] came to 90.9%.

With `CN1CCN(c2ccc(Nc3ncc(Cl)c(NCC4CCCCO4)n3)cc2)CC1` (stereo not drawn) [Example 4, 5-Chloro-N2-(4-(4-methylpiperazin-1-yl)phenyl)-N4-((tetrahydro-2H-pyran-2-yl)methyl)pyrimidine-2,4-diamine hydrochloride], the inhibition at 10 µM at ACK1 [3] was 97%.

Turning to `CN1CCN(c2ccc(Nc3ncc(Cl)c(NCC4CCCC4)n3)cc2)CC1` [Example 5, 5-Chloro-N4-(cyclopentylmethyl)-N2-(4-(4-methylpiperazin-1-yl)phenyl)pyrimidine-2,4-diamine], the inhibition at 10 µM at ACK1 [3] turned out to be 97%.

For `CN1CCN(c2ccc(Nc3ncc(Cl)c(NCC4CCCN4C)n3)cc2)CC1` (stereo not drawn) [Example 6, 5-Chloro-N2-(4-(4-methylpiperazin-1-yl)phenyl)-N4-((1-methylpyrrolidin-2-yl)methyl)pyrimidine-2,4-diamine tri TFA salt], the inhibition at 10 µM at ACK1 [3] was 35.6%.

With `CN1CCN(c2ccc(Nc3ncc(Cl)c(NCCc4ccccc4)n3)cc2)CC1` [Example 7, 5-chloro-N2-(4-(4-methylpiperazin-1-yl)phenyl)-N4-phenethylpyrimidine-2,4-diamine], on ACK1 [3], the inhibition at 10 µM was 91.9%.

Turning to `CN1CCN(c2ccc(Nc3ncc(Cl)c(NCCCc4ccccc4)n3)cc2)CC1` [Example 8, 5-Chloro-N2-(4-(4-methylpiperazin-1-yl)phenyl)-N4-(3-phenylpropyl)pyrimidine-2,4-diamine], the inhibition at 10 µM on ACK1 [3] turned out to be 85.8%.

On to `CN1CCN(c2ccc(Nc3ncc(Cl)c(NCCc4ccc(Cl)cc4Cl)n3)cc2)CC1` [Example 9, 5-Chloro-N4-(2,4-dichlorophenethyl)-N2-(4-(4-methylpiperazin-1-yl)phenyl)pyrimidine-2,4-diamine], for which, on ACK1 [3], the inhibition at 10 µM was determined as 36.5%.

With `CN1CCN(c2ccc(Nc3ncc(Cl)c(NCCc4c(Cl)cccc4Cl)n3)cc2)CC1` [Example 10, 5-Chloro-N4-(2,6-dichlorophenethyl)-N2-(4-(4-methylpiperazin-1-yl)phenyl)pyrimidine-2,4-diamine], the inhibition at 10 µM at ACK1 [3] turned out to be 97%.

For the compound `CN1CCN(c2ccc(Nc3ncc(Cl)c(NCCc4ccccc4Cl)n3)cc2)CC1` [Example 11, 5-Chloro-N4-(2-chlorophenethyl)-N2-(4-(4-methylpiperazin-1-yl)phenyl)pyrimidine-2,4-diamine], the inhibition at 10 µM on ACK1 [3] amounted to 91%.

Consider `CN1CCN(c2ccc(Nc3ncc(Cl)c(NCCc4c(F)cccc4Cl)n3)cc2)CC1` [Example 12, 5-Chloro-N4-(2-chloro-6-fluorophenethyl)-N2-(4-(4-methylpiperazin-1-yl)phenyl)pyrimidine-2,4-diamine], for which the inhibition at 10 µM at ACK1 [3] came out at 93%.

As to `CN1CCN(c2ccc(Nc3ncc(Cl)c(NCCc4ccccc4F)n3)cc2)CC1` [Example 13, 5-Chloro-N4-(2-fluorophenethyl)-N2-(4-(4-methylpiperazin-1-yl)phenyl)pyrimidine-2,4-diamine], at ACK1 [3], the inhibition at 10 µM was 91%.

As to `COc1ccccc1CCNc1nc(Nc2ccc(N3CCN(C)CC3)cc2)ncc1Cl` [Example 14, 5-Chloro-N4-(2-methoxyphenethyl)-N2-(4-(4-methylpiperazin-1-yl)phenyl)pyrimidine-2,4-diamine], the inhibition at 10 µM at ACK1 [3] worked out at 98%.

Regarding `CN1CCN(c2ccc(Nc3ncc(Cl)c(NCCc4ccccn4)n3)cc2)CC1` [Example 15, 5-Chloro-N2-(4-(4-methylpiperazin-1-yl)phenyl)-N4-(2-(pyridin-2-yl)ethyl)pyrimidine-2,4-diamine], at ACK1 [3], the inhibition at 10 µM came out at 91.9%.

With `Cc1ccccc1CCNc1nc(Nc2ccc(N3CCN(C)CC3)cc2)ncc1Cl` [Example 16, 5-Chloro-N4-(2-methylphenethyl)-N2-(4-(4-methylpiperazin-1-yl)phenyl)pyrimidine-2,4-diamine], the inhibition at 10 µM at ACK1 [3] was 91%.

In the case of `COc1cc(N2CCN(C)CC2)ccc1Nc1ncc(Cl)c(NCCc2c(F)cccc2Cl)n1` [Example 20, 5-Chloro-N^4-(2-chloro-6-fluorophenethyl)-N^2-[2-methoxy-4-(4-methylpiperazin-1-yl)phenyl]pyrimidine-2,4-diamine], the pIC50 on ACK1 [5] is 7.57; against JAK2 it was 5.76; on ALK, 8.15; on c-Src, 4.94.

Take `COc1ccccc1CCNc1nc(Nc2ccc(N3CCN(C)CC3)cc2OC)ncc1Cl` [Example 21, 5-Chloro-N^2-[2-methoxy-4-(4-methylpiperazin-1-yl)phenyl]-N^4-(2-methoxyphenethyl)pyrimidine-2,4-diamine]: the pIC50 on ACK1 [5] was 7.62; against JAK2, 6.07; on ALK, 8.70; against c-Src, 5.08.

Take `CN1CCN(C(=O)Cc2ccc(Nc3ncc(Cl)c(NC[C@H]4CCCO4)n3)cc2)CC1` [Example 24, (R)-2-(4-((5-chloro-4-(((tetrahydrofuran-2-yl)methyl)amino)pyrimidin-2-yl)amino)phenyl)-1-(4-methylpiperazin-1-yl)ethan-1-one]: the inhibition at 10 µM on ACK1 [3] was found to be 86.8%.

For `CN1CCC(NC(=O)c2ccc(Nc3ncc(Cl)c(NC[C@H]4CCCO4)n3)cc2F)CC1` [Example 25, (R)-4-((5-chloro-4-(((tetrahydrofuran-2-yl)methyl)amino)pyrimidin-2-yl)amino)-2-fluoro-N-(1-methylpiperidin-4-yl)benzamide], the inhibition at 10 µM at ACK1 [3] was 86.9%.

Consider `COc1cc(N2CCN(C)CC2)ccc1Nc1ncc(Cl)c(NC[C@H]2CCCO2)n1` [Example 26, (R)-5-Chloro-N^2-[2-methoxy-4-(4-methylpiperazin-1-yl)phenyl]-N^4-[(tetrahydrofuran-2-yl)methyl]pyrimidine-2,4-diamine], for which the pIC50 against ACK1 [5] is 7.41; against JAK2, 5.97; against ALK, 7.47; against c-Src, 4.78.

`COc1cc(Nc2c(C#N)cnc3cc(OCCCN4CCN(C)CC4)c(OC)cc23)c(Cl)cc1Cl` [bosutinib]: in [6], the “cell migration and invasion” value was “inhibit cell migration and invasion”; the viability result was “not viability”.

Regarding `CNC(=O)c1ccc(N2C(=S)N(c3ccc(C#N)c(C(F)(F)F)c3)C(=O)C2(C)C)cc1F` [enzalutamide], the “H4 Y88-phosphorylation” value in [1] is on record as “remained unaffected”.
